Test results: patent US20260183297A1, “SELECTION OF PATIENTS FOR THE TREATMENT OF FADS1-MEDIATED DISEASES OR DISORDERS USING FADS-1 INHIBITORS” (AMGEN INC., priority 2022, published 2026)
Marks after values point to notes of the source that are not given here.

Assay: Fatty acid concentration and composition of plasma lipid subfractions (GC) of Compound A-treated DIO mice
Assay type: in vivo, mouse
Experimental: FIG. 16(b) provides fatty acid composition of total plasma and each of the 4 plasma lipid subfractions of vehicle treated (WT) and 30 mg/kg Compound A-treated WT DIO mice (WT+A). (a-b) n=3 samples per group (each sample pooled from 2 mice). (a) Data are shown as minimum to maximum. t-test *P<0.05, **P<0.01, ***P<0.001.

[1] = DIO mouse plasma, Cholesterol ester, 30 mg/kg, GC, mean
[2] = DIO mouse plasma, Cholesterol ester, 30 mg/kg, GC, mean % composition
[3] = DIO mouse plasma, Free fatty acids, 30 mg/kg, GC, mean
[4] = DIO mouse plasma, Free fatty acids, 30 mg/kg, GC, mean % composition
[5] = DIO mouse plasma, Phospholipids, 30 mg/kg, GC, mean
[6] = DIO mouse plasma, Phospholipids, 30 mg/kg, GC, mean % composition

In the case of `COc1ccn2c(=O)c(-c3cnn(CC(F)(F)C(F)(F)F)c3)c(C(F)(F)F)nc2c1` [Compound A, 8-methoxy-3-(1-(2,2,3,3,3-pentafluoropropyl)-1H-pyrazol-4-yl)-2-(trifluoromethyl)-4H-pyrido[1,2-a]pyrimidin-4-one], the “EPA/AA ratio in all four lipid subfractions” value (Compound A-treated DIO mice, plasma) is reported as “increased”, the “C14:0 concentration, Cholesterol ester” value [1] is reported as 29.9 µg/mL and the “C16:0 concentration, Cholesterol ester” value [1] is reported as 90.5 µg/mL. The “C16:1n7 concentration, Cholesterol ester” value [1] was 27.7 µg/mL, the “C16:1n7t concentration, Cholesterol ester” value [1] was 2.6 µg/mL and the “C18:0 concentration, Cholesterol ester” value [1] was 50.3 µg/mL. The “C18:1n9 concentration, Cholesterol ester” value [1] was 113 µg/mL, the “C18:1t concentration, Cholesterol ester” value [1] was 8.1 µg/mL and the “C18:2n6 concentration, Cholesterol ester” value [1] was 516 µg/mL. The “C18:2n6t concentration, Cholesterol ester” value [1] was 10.4* μg mL^−1, the “C18:3n3 concentration, Cholesterol ester” value [1] was 3.0 µg/mL and the “C18:3n6 concentration, Cholesterol ester” value [1] was 20.4* μg mL^−1. The “C20:0 concentration, Cholesterol ester” value [1] was 1.2 µg/mL, the “C20:1n9 concentration, Cholesterol ester” value [1] was 0.6 µg/mL and the “C20:2n6 concentration, Cholesterol ester” value [1] was 1.4 µg/mL. The “C20:3n6 concentration, Cholesterol ester” value [1] was 124*** μg mL^−1, the “C20:5n3 concentration, Cholesterol ester” value [1] was 2.8* μg mL^−1 and the “C22:0 concentration, Cholesterol ester” value [1] was 1.3 µg/mL. The “C22:4n6 concentration, Cholesterol ester” value [1] was 1.5 µg/mL, the “C22:5n3 concentration, Cholesterol ester” value [1] was 31.0 µg/mL and the “C22:5n6 concentration, Cholesterol ester” value [1] was 1.7 µg/mL. For the same compound, the “C22:6n3 concentration, Cholesterol ester” value [1] was 37.4* μg mL^−1, the “C24:0 concentration, Cholesterol ester” value [1] was 1.2 µg/mL and the “C24:1n9 concentration, Cholesterol ester” value [1] was 2.6 µg/mL. The “Total fatty acids concentration, Cholesterol ester” value [1] was 1150* μg mL^−1, the “C14:0 composition, Cholesterol ester” value [2] was 2.61* % and the “C16:0 composition, Cholesterol ester” value [2] was 7.89*** %. For the same compound, the “C16:1n7 composition, Cholesterol ester” value [2] was 2.39* %, the “C16:1n7t composition, Cholesterol ester” value [2] was 0.23** % and the “C18:0 composition, Cholesterol ester” value [2] was 4.41* %. The “C18:1n9 composition, Cholesterol ester” value [2] was 9.73* %, the “C18:1t composition, Cholesterol ester” value [2] was 0.7*** % and the “C18:2n6 composition, Cholesterol ester” value [2] was 44.7*** %. For the same compound, the “C18:2n6t composition, Cholesterol ester” value [2] was 0.9*** %, the “C18:3n3 composition, Cholesterol ester” value [2] was 0.27% and the “C18:3n6 composition, Cholesterol ester” value [2] was 1.76*** %. For the same compound, the “C20:0 composition, Cholesterol ester” value [2] was 0.1%, the “C20:1n9 composition, Cholesterol ester” value [2] was 0.05% and the “C20:2n6 composition, Cholesterol ester” value [2] was 0.12%. For the same compound, the “C20:3n6 composition, Cholesterol ester” value [2] was 10.8*** %, the “C20:4n6 composition, Cholesterol ester” value [2] was 6.34*** % and the “C20:5n3 composition, Cholesterol ester” value [2] was 0.25%. The “C22:0 composition, Cholesterol ester” value [2] was 0.12%, the “C22:4n6 composition, Cholesterol ester” value [2] was 0.13% and the “C22:5n3 composition, Cholesterol ester” value [2] was 2.71* %. For the same compound, the “C22:5n6 composition, Cholesterol ester” value [2] was 0.14%, the “C22:6n3 composition, Cholesterol ester” value [2] was 3.26** % and the “C24:0 composition, Cholesterol ester” value [2] was 0.11%. For the same compound, the “C24:1n9 composition, Cholesterol ester” value [2] was 0.23%, the “C14:0 concentration, Free fatty acids” value [3] was 18.8 µg/mL and the “C16:0 concentration, Free fatty acids” value [3] was 132.7 µg/mL. The “C16:1n7 concentration, Free fatty acids” value [3] was 8.7 µg/mL, the “C16:1n7t concentration, Free fatty acids” value [3] was 0.5 µg/mL and the “C18:0 concentration, Free fatty acids” value [3] was 76.8 µg/mL. For the same compound, the “C18:1n9 concentration, Free fatty acids” value [3] was 98.1* μg mL^−1, the “C18:1t concentration, Free fatty acids” value [3] was 2.5 µg/mL and the “C18:2n6 concentration, Free fatty acids” value [3] was 38.5 µg/mL. For the same compound, the “C18:2n6t concentration, Free fatty acids” value [3] was 3.3 µg/mL, the “C18:3n3 concentration, Free fatty acids” value [3] was 1.6 µg/mL and the “C18:3n6 concentration, Free fatty acids” value [3] was 1.2 µg/mL. For the same compound, the “C20:0 concentration, Free fatty acids” value [3] was 1.8 µg/mL, the “C20:1n9 concentration, Free fatty acids” value [3] was 2.8 µg/mL and the “C20:2n6 concentration, Free fatty acids” value [3] was 1.1 µg/mL. For the same compound, the “C20:3n6 concentration, Free fatty acids” value [3] was 8.1** μg mL^−1, the “C20:4n6 concentration, Free fatty acids” value [3] was 2.9*** μg mL^−1 and the “C20:5n3 concentration, Free fatty acids” value [3] was 8.3 µg/mL. The “C22:0 concentration, Free fatty acids” value [3] was 1.4 µg/mL, the “C22:4n6 concentration, Free fatty acids” value [3] was 1.1* μg mL^−1 and the “C22:5n3 concentration, Free fatty acids” value [3] was 32.0 µg/mL. For the same compound, the “C22:5n6 concentration, Free fatty acids” value [3] was 0.4 µg/mL, the “C22:6n3 concentration, Free fatty acids” value [3] was 5.3 µg/mL and the “C24:0 concentration, Free fatty acids” value [3] was 1.0 µg/mL. The “C24:1n9 concentration, Free fatty acids” value [3] was 1.8 µg/mL, the “Total fatty acids concentration, Free fatty acids” value [3] was 451 µg/mL and the “C14:0 composition, Free fatty acids” value [4] was 4.15%. The “C16:0 composition, Free fatty acids” value [4] was 29.5%, the “C16:1n7 composition, Free fatty acids” value [4] was 1.91% and the “C16:1n7t composition, Free fatty acids” value [4] was 0.11%. For the same compound, the “C18:0 composition, Free fatty acids” value [4] was 17.1* %, the “C18:1n9 composition, Free fatty acids” value [4] was 21.8% and the “C18:1t composition, Free fatty acids” value [4] was 0.57%. For the same compound, the “C18:2n6 composition, Free fatty acids” value [4] was 8.61%, the “C18:2n6t composition, Free fatty acids” value [4] was 0.76% and the “C18:3n3 composition, Free fatty acids” value [4] was 0.34%. For the same compound, the “C18:3n6 composition, Free fatty acids” value [4] was 0.26* %, the “C20:0 composition, Free fatty acids” value [4] was 0.39% and the “C20:1n9 composition, Free fatty acids” value [4] was 0.61%. For the same compound, the “C20:2n6 composition, Free fatty acids” value [4] was 0.25%, the “C20:3n6 composition, Free fatty acids” value [4] was 1.82% and the “C20:4n6 composition, Free fatty acids” value [4] was 0.64*** %. The “C20:5n3 composition, Free fatty acids” value [4] was 1.75%, the “C22:0 composition, Free fatty acids” value [4] was 0.31% and the “C22:4n6 composition, Free fatty acids” value [4] was 0.25* %. For the same compound, the “C22:5n3 composition, Free fatty acids” value [4] was 7.14%, the “C22:5n6 composition, Free fatty acids” value [4] was 0.10% and the “C22:6n3 composition, Free fatty acids” value [4] was 1.15%. For the same compound, the “C24:0 composition, Free fatty acids” value [4] was 0.22%, the “C24:1n9 composition, Free fatty acids” value [4] was 0.39% and the “C14:0 concentration, Phospholipids” value [5] was 5.3 µg/mL. The “C16:0 concentration, Phospholipids” value [5] was 591 µg/mL, the “C16:1n7 concentration, Phospholipids” value [5] was 7.7 µg/mL and the “C18:0 concentration, Phospholipids” value [5] was 302*** μg mL^−1. The “C18:1n9 concentration, Phospholipids” value [5] was 260 µg/mL, the “C18:1t concentration, Phospholipids” value [5] was 3.9 µg/mL and the “C18:2n6 concentration, Phospholipids” value [5] was 400** μg mL^−1. For the same compound, the “C18:2n6t concentration, Phospholipids” value [5] was 4.5 µg/mL, the “C18:3n3 concentration, Phospholipids” value [5] was 1.0 µg/mL and the “C18:3n6 concentration, Phospholipids” value [5] was 4.3 µg/mL. For the same compound, the “C20:0 concentration, Phospholipids” value [5] was 1.4** μg mL^−1, the “C20:1n9 concentration, Phospholipids” value [5] was 5.8 µg/mL and the “C20:2n6 concentration, Phospholipids” value [5] was 9.0 µg/mL. For the same compound, the “C20:3n6 concentration, Phospholipids” value [5] was 382*** μg mL^−1, the “C20:4n6 concentration, Phospholipids” value [5] was 31.2*** μg mL^−1 and the “C20:5n3 concentration, Phospholipids” value [5] was 1.2* μg mL^−1. For the same compound, the “C22:0 concentration, Phospholipids” value [5] was 1.8 µg/mL, the “C22:4n6 concentration, Phospholipids” value [5] was 2.1*** μg mL^−1 and the “C22:5n3 concentration, Phospholipids” value [5] was 12.8 µg/mL. The “C22:5n6 concentration, Phospholipids” value [5] was 1.8*** μg mL^−1, the “C22:6n3 concentration, Phospholipids” value [5] was 70.2** μg mL^−1 and the “C24:0 concentration, Phospholipids” value [5] was 1.0 µg/mL. For the same compound, the “C24:1n9 concentration, Phospholipids” value [5] was 3.3 µg/mL, the “Total fatty acids concentration, Phospholipids” value [5] was 2105* μg mL^−1 and the “C14:0 composition, Phospholipids” value [6] was 0.25* %. The “C16:0 composition, Phospholipids” value [6] was 28.1** % and the “C16:1n7 composition, Phospholipids” value [6] was 0.36** %.
